Tested on: E. coli
Assay: Reductions of E. coli organisms

How did the “E. coli remaining after 5 minutes” value (after 5 minutes) turn out when `O=c1n(Cl)c(=O)n(Cl)c(=O)n1Cl` [Uncoated ACL, trichloroisocyanuric acid] was run?
The value was 0.

And the “E. coli remaining after: ½ hour” value (after ½ hour)?
Its value is “Slightly”.
